Two compounds from article PMC9804387, “Substrate Peptidomimetic Inhibitors of P. falciparum Plasmepsin X with Potent Antimalarial Activity” (Chemmedchem, 2022) can be followed below.

Broadly, the IC50 is the midpoint of a concentration-inhibition curve.

The target in one assay is T1, renin (Homo sapiens, UniProt P00797).
T1 construct: purchased Proteos R-001
T1 sequence (P00797 67-406): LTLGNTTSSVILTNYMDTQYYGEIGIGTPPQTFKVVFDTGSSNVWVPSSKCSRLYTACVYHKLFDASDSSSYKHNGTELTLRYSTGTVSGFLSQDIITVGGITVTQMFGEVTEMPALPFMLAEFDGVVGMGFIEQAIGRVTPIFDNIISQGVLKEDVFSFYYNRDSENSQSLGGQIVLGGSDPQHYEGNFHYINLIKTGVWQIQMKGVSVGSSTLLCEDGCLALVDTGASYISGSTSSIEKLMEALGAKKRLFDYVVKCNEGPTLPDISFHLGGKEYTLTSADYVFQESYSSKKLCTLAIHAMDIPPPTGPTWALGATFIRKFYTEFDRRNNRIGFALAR
The assay can be described thus: Renin FRET protease assay. In kind it is biochemical. Particulars: mean and SD of 4 replicate FRET experiments, 37 °C; highest concentration tested 11 μM.

Another assay deals with T2, recombinant Pf PMIX (Plasmodium falciparum, UniProt Q8ILG2).
T2 construct: made in house
The assay can be described thus: PMIX FRET protease assay. The class given is biochemical, P. falciparum. To be noted: mean and SD of 4 replicate FRET experiments, 37 °C. As for the experimental part:
(§1) FRET Protease Assays. FRET protease assays were performed as previously described.[19, 20, 27, 28] Briefly, ten‐point 1 : 3‐fold dilution series of the compounds were prepared in 384‐well black low volume assay plates (Greiner) using an Echo555 (Labcyte). 10 mM compound stocks were transferred into assay plates such that the starting concentration was 90 μM (Pv PMV assays), 11.25 μM (renin, cathepsin D and BACE‐1 assays) or 100 nM and 10 μM (Pf PMX and Pf PMIX assays). All wells were backfilled to 200 nL DMSO such that the DMSO concentration remained constant across the assay plates (1 % final). All compound potency assays were conducted in 20 μL total volume. For each assay, 10 μL of recombinant enzymes in respective assay buffers (Table S2) were dispensed into compound containing assay plates using a Multidrop‐Combi dispenser and allowed to incubate for 15 min. Recombinant Pf PMX, Pf PMIX and Pv PMV were expressed as previously described,[23, 27, 28] and recombinant human aspartyl proteases were purchased commercially. 10 μL of the fluorogenic peptide substrates incubated at 37 °C for the duration and conditions noted in Table S2. Samples were excited at 340 nm and fluorescence emission measured at 492 nm using an Envision fluorescence plate reader (Perkin‐Elmer). The 0 % inhibition control contained DMSO alone (1 % final) and the 100 % inhibition control was in the absence of enzyme. Half‐maximal inhibitory concentration (IC50) values were calculated by GraphPad Prism (8.0.2) software using a nonlinear regression four‐parameter fit analysis using a sigmoidal dose response (variable slope).
(§2) Table S2 . P rotease FRET assay conditions.
(§3) PMX as sa y PMIX PM V assay Renin assay Cathepsin D assay BA CE-1 assay E nzy me prot e as e 0.25 nM pro te a se 6 nM prot e as e q ua nti ty 0.1 nM pro t ea se 1.5 nM pro t ea se 2.5 nM pro t ea se 3 nM (Pro te os #R-001) ( Athe ns Re sea rc h (Sigma #S4195) […]
(§4) 25mM so di um acetate, 100 mM 25 mM M E S, 25 m M 50 mM Tr is, 100 mM 100 mM so di u m 20 mM so dium Buffer acetate, 0.005% sodium chloride and Tris-HCl, 0.01% N aC l, 0. 1% Bri j-35, acetate 0.02% scetate, 0.05% […]
(§5) Sub str at e DABCYL- ( DA BC YL ) - DABCYL- DABCYL-(γ- Ab u) - E[E(EDANS)]KPIL […]

Another assay deals with T3, recombinant Pf PMX (Plasmodium falciparum, UniProt Q8IAS0).
T3 construct: made in house
The assay can be described thus: PMX biochemical FRET assay (Rh2N fluorogenic substrate cleavage). To be noted: 37 °C. As for the experimental part: as §1, with “Half‐maximal inhibitory concentration (IC50) values were calculated by GraphPad Prism (8.0.2) software using a nonlinear regression four‐parameter fit analysis using a sigmoidal dose response (variable slope).” left out
as §2, §3, §4, §5

For another assay, the target named is T4, cathepsin D (Homo sapiens, UniProt P07339).
T4 construct: purchased Athens Research 16-12-030104
Briefly: Cathepsin D FRET protease assay. The class given is biochemical. To be noted: mean and SD of 4 replicate FRET experiments, 37 °C; highest concentration tested 11 μM.

A further assay has as its target T5, BACE‐1 (Homo sapiens, UniProt P56817).
T5 construct: purchased Sigma S4195
The assay can be described thus: BACE-1 FRET protease assay. To be noted: mean and SD of 4 replicate FRET experiments, 37 °C; highest concentration tested 11 μM. In kind it is biochemical.

The subject of assay [1] is P. falciparum 3D7 parasites. The assay can be described thus: Asexual stage of arrest assay (Giemsa smears, SYBR green flow cytometry). In kind it is cell-based. As for the experimental part: Asexual stage of arrest phenotyping. Inhibition of PMX prevents parasites from egressing from the host erythrocyte and arrests asexual stage parasites at the late schizont stage. […] In this assay, highly synchronized asexual ring stage parasites were treated with ten times the EC50 of 38 and 49c (2) and the DMSO vehicle control. The parasite stage of arrest was analyzed by microscopy of Giemsa‐stained blood smears, while parasitemia was quantified by flow cytometry at 12, 24, 36 and 48 hours.
Stage Arrestment Assay. As previously described,[42] P. falciparum 3D7 parasites were synchronized using a 5 % D‐sorbitol solution prior to assay set‐up. Ring‐staged parasites were adjusted to a final parasitemia and haematocrit of 1 % and 2 %, respectively. Compounds were added to a final concentration of 10×EC50 which were replenished after 24 h. Plates were incubated at 37°C for 48 h and blood smears and 50 μL aliquots in triplicate were harvested every 12 h. Aliquots for flow cytometry analysis were fixed in 0.25 % glutaraldehyde for 30 min at room temperature before being washed in PBS and stored at 4 °C until completion of the assay. To determine parasitemia, fixed blood pellets were stained with 50 μL 2.5×SYBR Green (Invitrogen) for 30 min before being diluted with 180 μL of PBS. 100 000 cells for each sample were counted using an Attune Flow Cytometer (ThermoFisher Scientific). Blood smears were stained with Giemsa and morphology of parasites were examined using a Zeiss Axio Observer microscope.

Setting [2] is: Table 3, mean and SD of 4 replicate FRET experiments.
[3] abbreviates: recombinant PMX, fluorogenic substrate (Rh2N) cleavage, 4 h, mean and SD of 4 replicates (Tables 1, 2).

Each structure is given as a SMILES string. Where a name gives a salt, the structure may show the parent alone. Where only a bound is given, the exact number is not on record here.

T3 sequence (Q8IAS0 222-573): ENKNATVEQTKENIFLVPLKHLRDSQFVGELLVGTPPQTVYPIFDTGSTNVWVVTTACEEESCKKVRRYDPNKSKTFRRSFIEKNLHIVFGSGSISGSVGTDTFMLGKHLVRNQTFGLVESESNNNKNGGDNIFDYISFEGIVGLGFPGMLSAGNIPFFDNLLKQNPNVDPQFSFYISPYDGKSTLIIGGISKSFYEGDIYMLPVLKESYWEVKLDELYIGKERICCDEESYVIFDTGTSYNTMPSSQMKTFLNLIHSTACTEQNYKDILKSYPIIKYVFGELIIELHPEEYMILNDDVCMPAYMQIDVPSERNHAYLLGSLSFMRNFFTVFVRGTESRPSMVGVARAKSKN
T5 sequence (P56817 46-460 limits assumed): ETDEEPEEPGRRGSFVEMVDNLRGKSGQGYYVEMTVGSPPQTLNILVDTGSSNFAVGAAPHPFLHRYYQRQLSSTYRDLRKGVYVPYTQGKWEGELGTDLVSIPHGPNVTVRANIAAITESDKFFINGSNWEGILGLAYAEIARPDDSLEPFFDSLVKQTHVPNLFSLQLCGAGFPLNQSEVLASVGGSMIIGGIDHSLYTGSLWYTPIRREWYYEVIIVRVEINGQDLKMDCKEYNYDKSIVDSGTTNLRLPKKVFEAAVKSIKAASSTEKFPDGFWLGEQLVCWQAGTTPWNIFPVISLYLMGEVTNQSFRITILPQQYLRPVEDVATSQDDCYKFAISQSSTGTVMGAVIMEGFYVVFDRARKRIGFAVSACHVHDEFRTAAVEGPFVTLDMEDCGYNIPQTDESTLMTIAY
T2 sequence (Q8ILG2 whole entry): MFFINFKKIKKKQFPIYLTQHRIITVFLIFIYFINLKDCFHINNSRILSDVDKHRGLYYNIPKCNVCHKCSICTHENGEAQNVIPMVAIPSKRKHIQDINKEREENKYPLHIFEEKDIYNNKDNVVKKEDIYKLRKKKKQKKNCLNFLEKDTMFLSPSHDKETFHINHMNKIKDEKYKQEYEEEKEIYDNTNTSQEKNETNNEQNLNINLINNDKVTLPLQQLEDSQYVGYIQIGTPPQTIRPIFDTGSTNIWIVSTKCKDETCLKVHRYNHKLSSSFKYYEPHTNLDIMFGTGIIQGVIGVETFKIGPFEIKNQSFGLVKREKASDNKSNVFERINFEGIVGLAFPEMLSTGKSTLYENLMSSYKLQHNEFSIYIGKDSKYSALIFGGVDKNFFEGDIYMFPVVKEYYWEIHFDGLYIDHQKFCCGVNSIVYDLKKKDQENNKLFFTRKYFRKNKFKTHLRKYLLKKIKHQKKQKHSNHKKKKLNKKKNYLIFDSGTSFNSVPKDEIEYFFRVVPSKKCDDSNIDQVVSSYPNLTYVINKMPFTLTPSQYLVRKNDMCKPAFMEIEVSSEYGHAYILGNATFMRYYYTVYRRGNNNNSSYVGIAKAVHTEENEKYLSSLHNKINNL
T4 sequence (P07339 65-412): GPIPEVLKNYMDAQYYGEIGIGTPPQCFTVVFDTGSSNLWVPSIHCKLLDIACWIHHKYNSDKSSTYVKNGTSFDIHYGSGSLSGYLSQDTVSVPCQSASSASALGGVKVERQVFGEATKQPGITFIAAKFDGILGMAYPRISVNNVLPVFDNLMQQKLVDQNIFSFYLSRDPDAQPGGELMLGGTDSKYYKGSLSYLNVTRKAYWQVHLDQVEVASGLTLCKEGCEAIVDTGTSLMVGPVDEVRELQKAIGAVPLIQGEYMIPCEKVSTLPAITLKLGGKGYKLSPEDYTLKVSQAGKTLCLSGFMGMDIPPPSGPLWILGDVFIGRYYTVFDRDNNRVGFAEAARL

As to `C[C@@H](NC[C@@H](O)[C@H](Cc1ccccc1)NC(=O)[C@H](CO)NC(=O)OCc1ccccc1)c1ccccc1` [Compd 38, Cbz‐Ser‐Phe‐HEA‐Bn(CH3)⋅TFA], the IC50 at renin is more than 11 µM; on recombinant Pf PMIX, 41 µM; at recombinant Pf PMX (setting [2]) it was 0.06 µM; at recombinant Pf PMX (setting [3]), 0.06 µM; against cathepsin D it was more than 11 µM; against BACE‐1, more than 11 µM. In addition, the “parasitemia / establishment of infection by flow cytometry” value in assay [1] (38 at 10×EC50 (900 nM), SYBR green flow cytometry at 12, 24, 36, 48 h) is reported as “unable to establish infection beyond 36 h”. The “asexual parasite stage of arrest” value in assay [1] (38 at 10×EC50 (900 nM), synchronized ring stage parasites, Giemsa smears, up to 48 h) is recorded as “arrests asexual parasites at the schizont stage”.

As for `C[C@@H](NC[C@@H](O)[C@H](Cc1ccccc1)NC(=O)c1ccc(C(=O)N2CCN(C)CC2)cc1)c1ccccc1` [Compd 2, reference compound], the IC50 is more than 11 µM against renin; 15.1 µM on recombinant Pf PMIX; 0.001 µM on recombinant Pf PMX (setting [2]); 0.001 µM at recombinant Pf PMX (setting [3]); more than 11 µM at cathepsin D; more than 11 µM on BACE‐1. Also, the “merozoite egress / stage of arrest” value in assay [1] (49c (2) at 10×EC50 (6 nM), Giemsa smears and flow cytometry, up to 48 h) is reported as “inhibition of merozoite egress”.
